Measured values as given in ChEMBL document CHEMBL1821652, “QSAR models for predicting enzymatic hydrolysis of new chemical entities in 'soft-drug' design” (Bioorg Med Chem, 2009).

Experiment: Half life in human plasma
Type: ADME, cell-free

SMILES	half-life [min]
Nc1ccc(S(=O)(=O)N(COC(=O)c2ccccc2)c2cncs2)cc1	0.12
CCCCC(=O)OCn1cnc2c1c(=O)n(C)c(=O)n2C	0.19
CCOC(=O)CNC(=O)OCOC(=O)c1ccccc1	0.24
CCOC(=O)CN(C)C(=O)OCOC(=O)c1ccccc1	0.41
CCOC(=O)CNC(=O)OCOC(=O)c1cccnc1	0.43
CCCN(CCC)Cc1cccc(C(=O)OCCOCn2cnc3c(=O)[nH]c(N)nc32)c1	0.8
CCOC(=O)c1ccc(/N=N/N(C)C(=O)OCOC(=O)c2ccccc2OC(C)=O)cc1	1
Nc1ccc(S(=O)(=O)N(COC(=O)c2ccccc2)c2ncccn2)cc1	1.38
CCOC(=O)CNC(=O)OCOC(=O)C(C)(C)Oc1ccc(Cl)cc1	1.63
CCCCC(=O)OCN1C(=O)NC(c2ccccc2)(c2ccccc2)C1=O	1.9
CS(=O)(=O)N(COC(=O)c1ccccc1)c1ccc([N+](=O)[O-])cc1Oc1ccccc1	1.93
CCCCN(CCCC)Cc1cccc(C(=O)OCCOCn2cnc3c(=O)[nH]c(N)nc32)c1	2.3
CCOC(=O)CN(C)C(=O)OCOC(=O)[C@@H](C)c1ccc2cc(OC)ccc2c1	2.72
COC(=O)[C@@H]1CCCN1C(=O)OCOC(=O)c1ccccc1	3.48
CCOC(=O)CNC(=O)OCOC(=O)Cc1ccccc1Nc1c(Cl)cccc1Cl	4.17
Nc1nc2c(ncn2COCCOC(=O)c2cccc(CN3CCOCC3)c2)c(=O)[nH]1	4.6
CCOC(=O)CN(COC(=O)[C@@H]1N2C(=O)[C@@H](NC(=O)Cc3ccccc3)[C@H]2SC1(C)C)C(=O)c1ccccc1	5.1
O=C(OC[C@H]1O[C@@H](n2cc(F)c(=O)[nH]c2=O)C[C@@H]1O)[C@@H]1CCCN1	5.7
Cc1noc(N(COC(=O)c2ccccc2)S(=O)(=O)c2ccc(N)cc2)c1C	5.78
O=C(OC[C@H]1O[C@@H](n2cc(F)c(=O)[nH]c2=O)C[C@@H]1OC(=O)[C@@H]1CCCN1)[C@@H]1CCCN1	6
C[C@H](NC(=O)[C@H](N)CCC(=O)OCc1ccc([N+](=O)[O-])cc1)C(=O)O	6.8
CC(=O)OCOC(=O)N(C)/N=N/c1ccc(C#N)cc1	7
CN(C)Cc1cccc(C(=O)OCCOCn2cnc3c(=O)[nH]c(N)nc32)c1	7

SMILES	half-life [min]
C[C@H](NC(=O)[C@H](N)CC(=O)OCc1ccc([N+](=O)[O-])cc1)C(=O)O	7.2
CCN(CC)Cc1cccc(C(=O)OCCOCn2cnc3c(=O)[nH]c(N)nc32)c1	7.5
Nc1nc2c(ncn2COCCOC(=O)c2cccc(CN3CCCCC3)c2)c(=O)[nH]1	8.5
CCN(CC)C(=O)COC(=O)[C@H]1O[C@@H](Oc2cc3oc(-c4ccc(O)cc4)cc(=O)c3c(O)c2O)[C@H](O)[C@@H](O)[C@@H]1O	10
CCOC(=O)CN(COC(=O)[C@@H]1N2C(=O)[C@@H](NC(=O)c3c(-c4c(Cl)cccc4Cl)noc3C)[C@H]2SC1(C)C)C(=O)c1ccccc1	10.1
Cc1ncc([N+](=O)[O-])n1CCOC(=O)CCCCCCCCC(=O)OCCn1c([N+](=O)[O-])cnc1C	10.2
CCCCOC(=O)[C@H](Cc1ccccc1)NC(=O)CN.Cl	11.5
CCOC(=O)c1ccc(/N=N/N(C)C(=O)OCOC(C)=O)cc1	12
CCOC(=O)CN(COC(=O)c1ccccc1)C(=O)c1ccccc1	12
O=C(O[C@H]1C[C@H](n2cc(F)c(=O)[nH]c2=O)O[C@@H]1CO)[C@@H]1CCCN1	13.8
CC(=O)OCOC(=O)N(C)/N=N/c1ccc(C)cc1	15
Cc1ncc([N+](=O)[O-])n1CCOC(=O)CCCCC(=O)OCCn1c([N+](=O)[O-])cnc1C	16.8
CC(=O)OCOC(=O)N(C)/N=N/c1ccc(Br)cc1	17
CCCCC(=O)OC[C@H]1O[C@@H](n2cnc3c(NC4CCCC4)ncnc32)[C@H](O)[C@@H]1O	18
Cc1cn([C@H]2C=C[C@@H](COC(=O)CN3CCNCC3)O2)c(=O)[nH]c1=O	20
CCOC(=O)CNC(=O)OCOC(=O)c1ccccc1Nc1cccc(C(F)(F)F)c1	21.8
CCOC(=O)CSCC(=O)[C@@]12OC(C)(C)O[C@@H]1C[C@H]1[C@@H]3C[C@H](F)C4=CC(=O)C=C[C@]4(C)[C@@]3(F)[C@@H](O)C[C@@]12C	24
CC(C)C(=O)Oc1ccc2c3c1O[C@H]1C(=O)CC[C@@]4(O)[C@@H](C2)N(CC2CC2)CC[C@]314	24.6
CCN(CC)Cc1ccc(C(=O)OCCOCn2cnc3c(=O)[nH]c(N)nc32)cc1	17
CCCCC/C=C\C/C=C\C/C=C\CCCCC(=O)OCn1cnc2c1c(=O)n(C)c(=O)n2C	27.3
CCCCCCCC(=O)OC[C@H]1O[C@@H](n2cnc3c(NC4CCCC4)ncnc32)[C@H](O)[C@@H]1O	28
NCCCC[C@H](N)C(=O)OC[C@H]1O[C@@H](n2cc(F)c(=O)[nH]c2=O)C[C@@H]1OC(=O)[C@@H](N)CCCCN	29.5
Cc1cn([C@H]2C=C[C@@H](COC(=O)CN(C)C)O2)c(=O)[nH]c1=O	30

SMILES	half-life [min]
CCC(=O)Oc1c(-c2ccc(O)c(O)c2)oc2cc(O)cc(O)c2c1=O	31.2
CC(C)CC(=O)Oc1ccc2c3c1O[C@H]1C(=O)CC[C@@]4(O)[C@@H](C2)N(CC2CC2)CC[C@]314	32.4
CN(C)Cc1ccc(C(=O)OCCOCn2cnc3c(=O)[nH]c(N)nc32)cc1	33
CCN(CC)CC(=O)OCCn1c([N+](=O)[O-])cnc1C.Cl	33.6
CCOC(=O)c1ccc(/N=N/N(C)C(=O)OCOC(=O)c2ccccc2O)cc1	34
Cc1ncc([N+](=O)[O-])n1CCOC(=O)CCCC(=O)OCCn1c([N+](=O)[O-])cnc1C	36.6
COc1ccc2cc([C@H](C)C(=O)OCCOCCO)ccc2c1	38.6
NCCCC[C@H](N)C(=O)OC[C@H]1O[C@@H](n2cc(F)c(=O)[nH]c2=O)C[C@@H]1O	38.8
CC(C)OC(=O)Oc1ccc2c3c1O[C@H]1C(=O)CC[C@@]4(O)[C@@H](C2)N(CC2CC2)CC[C@]314	39
O=C(OCN(C(=O)c1ccccc1)c1ccccc1)c1ccccc1	40
Cc1cc(C)nc(N(COC(=O)c2ccccc2)S(=O)(=O)c2ccc(N)cc2)n1	41.4
CCCCCCCCOC(=O)[C@H](Cc1ccccc1)NC(=O)CN.Cl	42.5
O=C(OC[C@H]1O[C@@H](n2cnc3c(NC4CCCC4)ncnc32)[C@H](O)[C@@H]1O)C1CCCCC1	45
CCCN(CCC)S(=O)(=O)c1ccc(C(=O)OCN(CC(=O)OCC)C(=O)c2ccccc2)cc1	46
CCC1CCN(CC(=O)OCCn2c([N+](=O)[O-])cnc2C)CC1	46.5
CCOC(=O)c1ccc(/N=N/N(C)C(=O)OCOC(=O)c2ccccc2)cc1	47
NCCCC[C@H](N)C(=O)O[C@H]1C[C@H](n2cc(F)c(=O)[nH]c2=O)O[C@@H]1CO	51
CCCSc1ccc2c(c1)nc(NC(=O)OC)n2C(=O)OCC	8.32
CCCSc1ccc2nc(NC(=O)OC)n(C(=O)OCC)c2c1	7.19
Nc1nc(O)c2ncn(COCCOC(=O)c3ccc(CN4CCOCC4)cc3)c2n1	3.7
N[C@@H](CC(=O)O)C(=O)OC[C@H]1O[C@@H](n2cc(F)c(=O)[nH]c2=O)C[C@@H]1O	38.6
